Molecular target: T1, Plk-1 (Homo sapiens, UniProt P53350)
T1 construct: purchased Cyclex
Assay: ELISA-based Polo-like Kinase-1 activity assay (Cyclex)
Assay type: biochemical
Conditions: compound at 10 uM, 10 mU purified Plk-1, 50 uM ATP, 30 minutes at 30° C.
Procedure: An ELISA-based Polo-like Kinase-1 activity assay (Cyclex, Nagano Japan) was used to confirm the Plk-1 inhibitory activity of the illustrative compound of the invention having the structure shown below. [drawing 39]
Briefly, 10 mU of purified Plk-1 (Cyclex) was incubated with the compound of interest in triplicate wells of a substrate-coated 96-well plate, along with 50 uM ATP and kinase buffer, for 30 minutes at 30° C. Wells were washed and probed with the anti-phospho-threonine antibody, incubated for 30 minutes at room temperature, then washed and probed again with an HRP-Anti Rabbit IgG. HRP substrate was added and the extent of phosphorylation was measured using a dual-wavelength spectrophotometer. At a concentration of 10 uM, compound (IB-10) inhibited Plk-1 activity in this assay by greater than 60%.
An ELISA-based Polo-like Kinase-1 activity assay (Cyclex, Nagano Japan) was used to confirm the Plk-1 inhibitory activity of the illustrative compound of the invention having the structure shown below (Compound 18, Table 1). [drawing 40]
Briefly, 10 mU of purified Plk-1 (Cyclex) was incubated with the compound in triplicate wells of a substrate-coated 96-well plate, along with 50 uM ATP and kinase buffer, for 30 minutes at 30° C. […] HRP substrate was added and the extent of phosphorylation was measured using a dual-wavelength spectrophotometer.

T1 sequence (P53350 whole entry): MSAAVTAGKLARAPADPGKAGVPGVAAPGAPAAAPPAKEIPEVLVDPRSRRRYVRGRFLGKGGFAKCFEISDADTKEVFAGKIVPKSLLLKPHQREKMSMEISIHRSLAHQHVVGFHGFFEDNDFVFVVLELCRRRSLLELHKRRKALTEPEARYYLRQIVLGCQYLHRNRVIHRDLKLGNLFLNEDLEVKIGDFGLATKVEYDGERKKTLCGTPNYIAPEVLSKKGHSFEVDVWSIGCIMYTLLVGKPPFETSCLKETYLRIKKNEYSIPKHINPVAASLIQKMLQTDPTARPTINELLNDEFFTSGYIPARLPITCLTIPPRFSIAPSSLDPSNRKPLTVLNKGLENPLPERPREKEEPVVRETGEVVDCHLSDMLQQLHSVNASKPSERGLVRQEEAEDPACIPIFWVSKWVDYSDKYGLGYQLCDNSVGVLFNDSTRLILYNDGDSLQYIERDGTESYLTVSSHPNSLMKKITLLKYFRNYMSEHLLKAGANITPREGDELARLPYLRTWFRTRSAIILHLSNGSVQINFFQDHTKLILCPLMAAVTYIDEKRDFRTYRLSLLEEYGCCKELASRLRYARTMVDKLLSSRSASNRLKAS

Compound	Plk-1 activity reduced to % of untreated controls (remaining activity) [%]	inhibition at 10 µM (read-out: inhibited Plk-1 activity) [%]
COc1cc2nncc(Nc3ccc(S(=O)(=O)NC(C)=O)cc3)c2cc1OC [Compound 18, N-Acetyl-4-(6,7-dimethoxy-cinnolin-4-ylamino)-benzenesulfonamide]	88	–
NC(=O)c1nnc2cc(Cl)c(F)cc2c1/N=C/c1ccc([N+](=O)[O-])cc1 [IB-10, (E)-4-(4-nitrobenzylideneamino)-7-chloro-6-fluorocinnoline-3-carboxamide]	–	> 60
